Laboratory results reported in PubChem BioAssay AID250 (DTP/NCI, 2004).
“And” between values parts separate entries of the source, which are not always exact repeats. Equal entries are not always repeated. Inconclusive results and toxic doses are left out.

Tested on: BDF1 mice, L1210 leukemia sc, survival T/C
Assay: NCI In Vivo Anticancer Drug Screen. Data for tumor model L1210 Leukemia (subcutaneous) in B6D2F1 (BDF1) mice
Conditions: endpoint: median survival time, higher = longer survival
Method in brief: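 Mice carrying transplanted tumors received test compounds, and survival or tumor size was measured. Values are the treated-group measurement (T) divided by that of the vehicle-treated control group (C).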

[1] = dose: 65.0 mg/kg/injection, schedule: Q01DX Z (sc), vehicle: saline
[2] = dose: 108.0 mg/kg/injection, schedule: Q01DX Z (sc), vehicle: saline
[3] = dose: 180.0 mg/kg/injection, schedule: Q01DX Z (sc), vehicle: saline

O=c1[nH]c(=O)n([C@H]2CCCO2)cc1F
T/C (dose: 39.0 mg/kg/injection, schedule: Q01DX009 (ip), vehicle: water): 107 % of control
T/C (dose: 39.0 mg/kg/injection, schedule: Q01DX009 (sc), vehicle: water): 100 % of control
T/C (dose: 65.0 mg/kg/injection, schedule: Q01DX009 (ip), vehicle: water): 108 % of control
T/C (dose: 65.0 mg/kg/injection, schedule: Q01DX009 (sc), vehicle: water): 109 % of control
T/C (dose: 108.0 mg/kg/injection, schedule: Q04DX003 (ip), vehicle: water): 119 % of control
T/C (dose: 108.0 mg/kg/injection, schedule: Q04DX003 (sc), vehicle: water): 102 % of control
T/C (dose: 180.0 mg/kg/injection, schedule: Q01DX009 (ip), vehicle: water): 120 % of control
T/C (dose: 180.0 mg/kg/injection, schedule: Q01DX009 (sc), vehicle: water): 117 % of control
T/C (dose: 180.0 mg/kg/injection, schedule: Q04DX003 (ip), vehicle: water): 120 % of control
T/C (dose: 180.0 mg/kg/injection, schedule: Q04DX003 (sc), vehicle: water): 110 % of control
T/C (dose: 300.0 mg/kg/injection, schedule: Q01DX009 (ip), vehicle: water): 97 % of control
T/C (dose: 300.0 mg/kg/injection, schedule: Q01DX009 (sc), vehicle: water): 100 % of control
T/C (dose: 300.0 mg/kg/injection, schedule: Q04DX003 (ip), vehicle: water): 152 % of control
T/C (dose: 500.0 mg/kg/injection, schedule: Q04DX003 (sc), vehicle: water): 161 % of control
T/C (dose: 833.0 mg/kg/injection, schedule: Q04DX003 (ip), vehicle: water): 168 % of control
T/C (dose: 833.0 mg/kg/injection, schedule: Q04DX003 (sc), vehicle: water): 106 % of control

O=C(O)CCCc1ccc(N(CCCl)CCCl)cc1
T/C (dose: 8.4 mg/kg/injection, schedule: Q01DX Z (sc), vehicle: methylcellulose (MC)): 100 % of control
T/C (dose: 14.0 mg/kg/injection, schedule: Q01DX Z (sc), vehicle: methylcellulose (MC)): 100 % of control
T/C (dose: 23.0 mg/kg/injection, schedule: Q01DX Z (sc), vehicle: methylcellulose (MC)): 100 % of control
T/C (dose: 39.0 mg/kg/injection, schedule: Q01DX Z (sc), vehicle: methylcellulose (MC)): 110 % of control

CCNc1nncs1
T/C (dose: 65.0 mg/kg/injection, schedule: Q01DX Z (sc), vehicle: other): 120 % of control
T/C (dose: 180.0 mg/kg/injection, schedule: Q01DX Z (sc), vehicle: other): 150 % of control
T/C (dose: 300.0 mg/kg/injection, schedule: Q01DX Z (sc), vehicle: other): 175 % of control

O=c1ccn(C2OC(CO)C(O)C2O)c(=O)[nH]1 (configuration not stated)
T/C [1]: 100 % of control
T/C [2]: 100 % of control
T/C [3]: 95 % of control and 111 % of control
T/C (dose: 300.0 mg/kg/injection, schedule: Q01DX Z (sc), vehicle: saline): 90 % of control and 100 % of control
T/C (dose: 500.0 mg/kg/injection, schedule: Q01DX Z (sc), vehicle: saline): 90 % of control and 100 % of control
T/C (dose: 833.0 mg/kg/injection, schedule: Q01DX Z (sc), vehicle: saline): 100 % of control
T/C (dose: 1388.0 mg/kg/injection, schedule: Q01DX Z (sc), vehicle: saline): 100 % of control

CN(N=O)C(N)=O
T/C (dose: 0.75 mg/kg/injection, schedule: Q01DX009 (ip), vehicle: saline): 100 % of control
T/C (dose: 1.5 mg/kg/injection, schedule: Q01DX009 (ip), vehicle: saline): 100 % of control
T/C (dose: 3.0 mg/kg/injection, schedule: Q01DX009 (ip), vehicle: saline): 105 % of control
T/C (dose: 6.0 mg/kg/injection, schedule: Q01DX009 (ip), vehicle: saline): 120 % of control
T/C (dose: 14.0 mg/kg/injection, schedule: Q01DX Z (sc), vehicle: saline): 111 % of control
T/C (dose: 23.0 mg/kg/injection, schedule: Q01DX Z (sc), vehicle: saline): 100 % of control and 111 % of control
T/C (dose: 31.1 mg/kg/injection, schedule: Q01DX Z (sc), vehicle: saline): 122 % of control
T/C [1]: 155 % of control
T/C (dose: 86.4 mg/kg/injection, schedule: Q01DX Z (sc), vehicle: saline): 118 % of control
T/C [2]: 118 % of control and 120 % of control
T/C (dose: 144.0 mg/kg/injection, schedule: Q01DX Z (sc), vehicle: saline): 109 % of control
T/C [3]: 100 % of control and 120 % of control

CCSc1ncnc2nc[nH]c12
T/C (dose: 38.9 mg/kg/injection, schedule: Q01DX Z (sc), vehicle: methylcellulose (MC)): 100 % of control
T/C (dose: 64.8 mg/kg/injection, schedule: Q01DX Z (sc), vehicle: methylcellulose (MC)): 100 % of control
T/C (dose: 108.0 mg/kg/injection, schedule: Q01DX Z (sc), vehicle: methylcellulose (MC)): 110 % of control
T/C (dose: 180.0 mg/kg/injection, schedule: Q01DX Z (sc), vehicle: methylcellulose (MC)): 100 % of control
T/C (dose: 300.0 mg/kg/injection, schedule: Q01DX Z (sc), vehicle: methylcellulose (MC)): 110 % of control
